The record followed here is PubChem BioAssay AID179 (DTP/NCI, 2004).

In this test the test system is CEM cells HIV-1 protection, formazan growth assay. Put plainly: NCI AIDS Antiviral Assay. As to conditions: for IC50: measured here: growth of uninfected CEM cells. The procedure, abridged: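 Human CEM cells, uninfected and HIV-1-infected, received five drug concentrations, and growth was read by soluble formazan assay. Compounds giving at least 50% protection were retested; reproducible 100% protection defined confirmed active.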

Where “and” joins values, the source holds several entries; their conditions need not be identical. Identical values can stand only once. Calls of active or inactive are those of the source.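 How the source made its calls: active means compounds giving half or more protection of infected cells from virus-caused growth loss, again on retest; inactive means the rest.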 Some results are limits rather than exact numbers.

Turning to `Cc1ccccc1NC(=O)C(=O)CC(=O)c1ccc([N+](=O)[O-])cc1`, the EC50 was over 8.32 µM and the IC50 is over 8.32 µM.

As for `O=[N+]([O-])C=C1c2ccccc2-c2ccccc21`, the result was inactive.

In the case of `N#C/C1=C(\C#N)N=Cc2ccccc2NCCNc2ccccc2C=N1`, the EC50 is over 200 µM and the IC50 was over 200 µM.

With `CN(C)C[C@H]1CC[C@@H](CN(C)C)C1=O`, the outcome was inactive.

With `Nc1nc2c(C(=O)O)c3ccc([N+](=O)[O-])cc3c(=O)n2c2ccccc12`, the EC50 was over 200 µM and the IC50 came out at 15.8 µM.

Take `CN1CCN(C(=O)/N=N\C(=O)N2CCN(C)CC2)CC1`: the EC50 was over 200 µM and the IC50 was over 200 µM.

For `OC1(O)/C=C\CCCCC/C=C\1`, the EC50 is over 200 µM and the IC50 came out at 129 µM.

Turning to `NCCN.O=C([O-])CC(O)C(=O)[O-].[Pt+4]` (stereo unspecified), the EC50 is over 200 µM and the IC50 was found to be 12 µM.

As to `O=C1NCCN1C(=O)Nc1ccc(S(=O)(=O)c2ccc([N+](=O)[O-])cc2)cc1`, the EC50 is over 200 µM and the IC50 amounted to 74.1 µM.

Turning to `ClCCCc1ccccc1C1=NCCc2ccccc21`, the EC50 is over 200 µM and the IC50 amounted to 5.25 µM.

As to `Cn1c(=O)cc(CC#N)c2ccccc21`, the EC50 is over 200 µM and the IC50 was over 200 µM.

Consider `CCOC(=O)/C(=C\c1cccc(Br)c1)C(C)=O`, for which the EC50 was over 229 µM and the IC50 was 47.9 µM.

`CCCC(=O)NC(NC1CCCCC1)(C(=O)OCC)C(F)(F)F` (stereo unspecified): the EC50 is 191 µM and the IC50 is over 200 µM.

Turning to `N#Cc1c(Br)n(C2OC(CO)C(O)C2O)c2ncn3ccnc3c12` (stereo unspecified), the EC50 is over 200 µM and the IC50 was over 200 µM.

Regarding `Cn1c2ccccc2c2nc3ccccc3nc21`, the EC50 is over 22.4 µM and the IC50 is over 22.4 µM.

For `CC(SSc1ccc(C(C)(C)C)cc1)c1ccccc1` (stereo unspecified), the EC50 is over 200 µM and the IC50 was 8.51 µM.

`COc1ccc(Cl)cc1C(=O)c1cc(Cl)cc(S(=O)(=O)O)c1OC`: the EC50 is over 617 µM and the IC50 was 427 µM.

For the compound `CC(C)(Oc1ccc2c(=O)cc(-c3ccccc3)oc2c1)C(=O)Nc1c(Cl)cccc1Cl`, the EC50 is over 11.2 µM and the half-maximal inhibitory concentration (IC50) was over 11.2 µM.

On to `Nc1ncnc2c1ncn2CC1OC(CO)C(CO)O1` (stereo unspecified), for which the EC50 is over 891 µM and the IC50 was over 891 µM.

Take `O=C1N(Cc2ccccc2)CC(O)CN1Cc1ccccc1`: the EC50 was over 200 µM and the IC50 came out at 174 µM.

`CCOC(=O)c1nc2ccc(C(F)(F)F)cc2nc1Oc1ccc(F)cc1`: the EC50 was over 200 µM and the concentration for half-maximal inhibition (IC50) was over 200 µM.

Consider `Cc1cc2c(=O)cc(-c3ccc(O)cc3)oc2c(C(=O)O)c1C`, for which the outcome was inactive.

As to `COc1cc2c(c(OC)c1OC)-c1cc3c(cc1C(=O)CC(C(=O)O)(C(=O)O)C2)OCO3`, the EC50 is over 562 µM and the IC50 was over 562 µM.

As for `CC(=O)NC(CS/N=N/c1nc[nH]c1C(N)=O)C(=O)O` (stereo unspecified), the EC50 is over 200 µM and the 50% inhibitory concentration (IC50) amounted to 0.38 µM.

Turning to `CC(=O)N1CCCN(C)/C1=N/[N+](=O)[O-]`, the EC50 was over 200 µM and the IC50 is over 200 µM.

Turning to `CCC12CCCN(Cc3ccccc3)C1c1c(n(C)c3ccccc13)C(CO)C2` (stereo unspecified), the EC50 is over 25.7 µM and the IC50 was over 25.7 µM.

For the compound `O=c1c(Cl)c(Cl)cnn1-c1ccccc1`, the EC50 was over 126 µM; the IC50 was 0.288 µM and 2.63 µM.

On to `Cc1ccc(S(=O)(=O)N2CCNCCN(S(=O)(=O)c3ccc(C)cc3)CCN(S(=O)(=O)c3ccc(C)cc3)CC2)cc1`, for which the EC50 is over 200 µM and the IC50 is over 200 µM.

Consider `CCCCCCCCCCC(=O)CC(=O)c1c(O)cccc1O`, for which the result was inactive.

In the case of `COc1cccc2c(=O)c3c(O)c4cc(N(C)C)ccc4c(OC(C)=O)c3oc12`, the EC50 was over 200 µM and the IC50 is 8.91 µM.

For the compound `COc1ccc(CCNC(=O)Cc2cc(OC)c(OC)cc2CO)cc1OC`, the EC50 is over 200 µM and the IC50 turned out to be 195 µM.

For `CCOC(=O)c1cnc2c(ccc3[nH]n(C)nc32)c1=O`, the EC50 was over 251 µM and the IC50 is over 251 µM.

In the case of `CC(C)(C)c1ccc2c(c1)OCc1n[nH]c(n1)COc1cc(C(C)(C)C)ccc1OCCOCCO2`, the EC50 is over 200 µM and the IC50 worked out at 7.24 µM.

Regarding `CC1CC2C3CC(F)C4=CC(=O)C=CC4(C)C3(F)C(O)CC2(C)C1(O)C(=O)CO` (stereo unspecified), the result was inactive.

For `COC(=O)c1ccc2n1C1CC3CC(CC2C3)C1`, the EC50 is over 200 µM and the IC50 stood at 87.1 µM.

`CSc1n[nH]c(NC(=O)c2ccccc2CS)n1`: the EC50 is over 64.6 µM and the IC50 is over 64.6 µM.

Turning to `CC(=O)Nc1ccc([As](=O)(O)O)cc1C(=O)O`, the EC50 is over 200 µM and the IC50 is over 200 µM.

As for `C[CH2][Sn]([CH2]C)([O]C(=O)c1ccccc1OC)[O][Sn]([CH2]C)([CH2]C)[O]C(=O)c1ccccc1OC`, the EC50 is over 38.9 µM and the IC50 was 29.5 µM.

As for `O=C1CCCc2ccc3c(c21)CC1(Cc2ccccc2C1)C3`, the EC50 is over 200 µM and the IC50 was determined as 25.1 µM.

Consider `c1ccc2c(c1)CCN(NCCN1CCCC1)C2`, for which the result was inactive.

Regarding `Cc1cc(N(CCC#N)CCC#N)ccc1/C=C(\NC(=O)/C=C/c1ccccc1)C(N)=O`, the outcome was inactive.

Take `CCc1cccc(C(C)(C)C)c1NC(=S)NC=C(C#N)C#N`: the EC50 is over 200 µM and the IC50 was determined as 145 µM.

In the case of `C#CC1(O)CCC2C3CCc4cc(Oc5nc(F)nc(-c6c7cc8ccccc8cc7c(SCC)n6CCC)n5)ccc4C3CCC21C` (stereo unspecified), the result was inactive.

For the compound `O=C(O)C(CSSCC(NC(=O)C(F)(F)F)C(=O)O)NC(=O)C(F)(F)F` (stereo unspecified), the EC50 was over 200 µM and the IC50 is over 200 µM.

For the compound `O=c1[nH]c2ncccc2c(=O)n1OS(=O)(=O)c1ccccc1`, the EC50 is over 200 µM and the IC50 turned out to be 135 µM.

`CC1(C)OC2C(O1)[C@H]1OC(C(Cl)(Cl)Cl)=N[C@H]1C(I)[C@H]2N1C(=O)c2ccccc2C1=O` (stereo partly specified): the EC50 was over 200 µM and the IC50 came out at 110 µM.

For the compound `CN1C(=O)CCC1(O)C1C=CC=CC1` (stereo unspecified), the EC50 is over 1290 µM and the IC50 is over 1290 µM.

On to `COc1ccc(CCn2nccc2C)cc1`, for which the EC50 is over 200 µM and the IC50 was over 200 µM.

Turning to `Nc1ccc(N=Nc2ccccc2)c(N)n1`, the EC50 was over 200 µM and the IC50 worked out at 32.4 µM.

For `NC(=O)c1cc2cc(O)c(O)cc2cn1`, the EC50 is over 209 µM and the IC50 turned out to be 12.6 µM.

As to `[N-]=[N+]=Nc1c(C=O)c(=O)n2c3c(cccc13)CCC2`, the EC50 is over 200 µM and the IC50 is 4.27 µM.

Regarding `CCCCCCCC(=O)OCC(C[As](=O)(O)O)OC(=O)CCCCCCC` (stereo unspecified), the EC50 was over 200 µM and the IC50 came out at 15.1 µM.

As to `CN(CC#N)[C@H]1CCC[C@]1(O)/C=C/[Si](C)(C)C`, the EC50 is over 28.8 µM and the IC50 is over 28.8 µM.

Turning to `Cc1ccc(S(=O)/C=C(\NC(=O)OCc2ccccc2)C(F)(F)F)cc1` (stereo unspecified), the result was inactive.

Regarding `COc1cc(C(=O)n2c3ccc(Br)cc3c3nc4ccccc4nc32)cc(OC)c1OC`, the EC50 was over 50.1 µM and the IC50 was over 50.1 µM.
